What was measured:
TSHR = molecular target: T1, TSHR (Homo sapiens, UniProt P16473); experiment: NanoBRET screen HiBiT-TSHR in HEK293; type: binding
T1 construct: purchased Promega (in-house HiBiT-GPCR construct library, NanoBRET)
Description: (§1) Each tracer candidate was screened across the entire library of HiBiT-GPCR constructs using NanoBRET as the detection modality. As depicted in Figure 4A, the specificity of interactions was evaluated through decrease in BRET due to competitive displacement of a bound tracer by excess parental compound. Each tracer was analyzed for binding to each HiBiT-GPCR fusion in the absence and in the presence of competing parental compound. Briefly, HEK293 cells were transfected with HiBiT-GPCR constructs diluted into promoterless DNA to reduce expression and maximize translocation to the cell surface. Each tracer candidate was then screened at concentrations of 1 μM and 0.1 μM across cells expressing these fusions. Cells were treated for 1.5 h with tracer either alone or in the presence of 20 μM competing parental compound (i.e., control). BRET was measured upon addition of purified LgBiT and subsequent complementation with HiBiT genetically fused to a GPCR. The specificity of interactions was assessed through a decrease in BRET signal due to competitive displacement of the bound tracer. To further gauge the robustness of these interactions, the fold response over the control (i.e., BRETtracer/BRETcontrol) was calculated. We chose a 1.5-fold response, which translates to ≥7-fold signal over noise as the minimal threshold required to score an interaction as positive.
(§2) HiBiT-GPCR DNA constructs were diluted in 10 mM Tris pH 8 to a final concentration of 0.01 μg/μL, arrayed in 96-well plates and stored at −20 °C. For transfection, HEK293 cells were suspended in Opti-MEM (without phenol red) supplemented with 2% fetal bovine serum (Seradigm) and 100 units/mL penicillin–streptomycin (Gibco) at a final concentration of 220,000 cells/mL and dispensed into white 96-well plates at 90 μL/well. Subsequent transfections and screens were carried using an Agilent Bravo Automated Liquid Handling Platform. First, the 96-well HiBiT DNA arrays were diluted 25-fold in Opti-MEM (without serum or phenol red) to a final concentration of 0.0004 μg/μL and 20 μL of the diluted DNAs were transferred into new 96-well plates. Next, promoterless carrier DNA (1 μg/μL) was diluted 25-fold (0.04 μg/μL) and then dispensed into the diluted arrays at 20 μL/well. Following brief mixing, Viafect transfection reagent (Promega) diluted 16-fold into Opti-MEM was dispensed into the plates at 40 μL/well. After mixing by pipetting, plates were incubated for 10 min on the pipetting station deck. The DNA-transfection reagent complexes were then added to plates containing cells. To facilitate the screen, 10 μL of DNA-transfection reagent complexes were added in duplicates to the top 4 and bottom 4 rows, resulting in two identical 48-well arrays per plate. Plates with transfected cells were incubated for 18–20 h at 37 °C/5% CO2. A screen of each tracer across the entire library using two different concentrations requires duplicate plates of transfected cells. Depending on the number of tracers being screened, transfections can be scaled up using the same ratios. The next day, for each tracer, four 20× screening solutions in tracer dilution buffer (Promega) were prepared: two duplicates at final concentration of 20 μM and two duplicates at a final concentration of 2 μM. […] The four resulting solutions were diluted 4-fold in Opti-MEM without serum or phenol red to generate 5× solutions (5 µM and 0.5 µM tracer +/− 100 μM competing compound). To screen the library, a BioTek MultiFlo FX liquid dispenser was used to dispense 22.5 µL of tracer solution to the top 4 rows and 22.5 µL tracer + competing compound solution to the 4 bottom rows. Plates were briefly mixed on an orbital shaker and incubated for 1.5 h at room temperature. […] Plates were briefly mixed on an orbital shaker and incubated for 15 min to allow complementation.

CHRM5 = molecular target: T2, CHRM5 (Homo sapiens, UniProt P08912); experiment: NanoBRET screen HiBiT-CHRM5 in HEK293; type: binding
T2 construct: purchased Promega (in-house HiBiT-GPCR construct library, NanoBRET)
T2 sequence (P08912 1-532): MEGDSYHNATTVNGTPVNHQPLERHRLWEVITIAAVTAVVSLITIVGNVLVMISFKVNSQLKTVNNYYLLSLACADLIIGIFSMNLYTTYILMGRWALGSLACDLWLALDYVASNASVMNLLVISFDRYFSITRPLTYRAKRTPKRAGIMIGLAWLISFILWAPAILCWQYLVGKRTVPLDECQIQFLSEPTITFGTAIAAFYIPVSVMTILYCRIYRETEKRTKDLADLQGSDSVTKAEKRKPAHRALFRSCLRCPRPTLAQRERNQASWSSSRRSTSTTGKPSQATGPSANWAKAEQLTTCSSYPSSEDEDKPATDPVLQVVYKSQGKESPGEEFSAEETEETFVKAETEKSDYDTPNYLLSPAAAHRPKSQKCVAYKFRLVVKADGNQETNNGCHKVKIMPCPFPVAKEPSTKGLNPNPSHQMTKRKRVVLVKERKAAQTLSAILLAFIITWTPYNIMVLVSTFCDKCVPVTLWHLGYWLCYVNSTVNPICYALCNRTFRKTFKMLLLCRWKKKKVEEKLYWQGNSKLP
Description: as §1, §2

T1 sequence (P16473 21-764): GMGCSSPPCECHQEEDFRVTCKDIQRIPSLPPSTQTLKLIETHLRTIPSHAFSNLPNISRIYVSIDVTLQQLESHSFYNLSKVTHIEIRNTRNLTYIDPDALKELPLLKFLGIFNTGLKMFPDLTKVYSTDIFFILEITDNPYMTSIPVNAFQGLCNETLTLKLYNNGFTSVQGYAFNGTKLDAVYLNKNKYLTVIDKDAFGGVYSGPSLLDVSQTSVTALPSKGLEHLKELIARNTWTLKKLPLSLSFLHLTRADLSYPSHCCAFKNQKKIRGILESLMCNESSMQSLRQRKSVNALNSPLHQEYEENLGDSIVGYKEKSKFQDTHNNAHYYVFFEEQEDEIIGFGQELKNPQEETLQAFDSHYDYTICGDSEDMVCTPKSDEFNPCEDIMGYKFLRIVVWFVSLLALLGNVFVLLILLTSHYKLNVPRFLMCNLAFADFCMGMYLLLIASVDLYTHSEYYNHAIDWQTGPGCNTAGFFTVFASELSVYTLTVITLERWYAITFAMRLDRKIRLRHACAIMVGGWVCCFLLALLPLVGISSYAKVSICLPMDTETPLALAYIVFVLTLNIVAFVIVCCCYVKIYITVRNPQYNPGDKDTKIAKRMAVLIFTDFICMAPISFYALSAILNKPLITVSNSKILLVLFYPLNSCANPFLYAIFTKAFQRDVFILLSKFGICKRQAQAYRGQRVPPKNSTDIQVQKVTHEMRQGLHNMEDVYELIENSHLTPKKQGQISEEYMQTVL

O=C(CCc1ccc2n1[B-](F)(F)[N+]1=C(c3ccc[nH]3)C=CC1=C2)NCc1ccc(C(=O)NCCOCCC(=O)N[C@@H]2CC[C@@]3(O)[C@H]4Cc5ccc(O)c6c5[C@@]3(CCN4CC3CC3)[C@H]2O6)cc1 [Naltrexone-3-NB590]
NanoBRET Fold Response (TSHR; TSHR, tracer 0.1μM): 1.36
NanoBRET Fold Response (TSHR; TSHR, tracer 1μM): 1.06
NanoBRET Fold Response (CHRM5; CHRM5, tracer 0.1μM): 1.18
NanoBRET Fold Response (CHRM5; CHRM5, tracer 1μM): 0.79

CN1CCN(C2=Nc3cc(Cl)ccc3N(CC(=O)NCCOCCOCCOCCOCCNC(=O)CCc3ccc4n3[B-](F)(F)[N+]3=C(c5ccc[nH]5)C=CC3=C4)c3ccccc32)CC1 [Clozapine-c-2-NB590]
NanoBRET Fold Response (TSHR; TSHR, 0.1μM tracer): 0.99
NanoBRET Fold Response (TSHR; TSHR, 1μM tracer): 1.04
NanoBRET Fold Response (CHRM5; CHRM5, 0.1μM tracer): 1.00
NanoBRET Fold Response (CHRM5; CHRM5, 1μM tracer): 0.86

O=C(CCOCCOCCOCCOCCNC(=O)CCc1ccc2n1[B-](F)(F)[N+]1=C(c3ccc[nH]3)C=CC1=C2)NCCCN1CCN(C2=Nc3cc(Cl)ccc3Nc3ccccc32)CC1 [Clozapine-a-2-NB590]
NanoBRET Fold Response (TSHR; TSHR, 0.1μM tracer): 0.92
NanoBRET Fold Response (TSHR; TSHR, 1μM tracer): 1.05
NanoBRET Fold Response (CHRM5; CHRM5, 0.1μM tracer): 1.10
NanoBRET Fold Response (CHRM5; CHRM5, 1μM tracer): 0.91

CCOC(=O)c1cc(C#N)c(N2CCC(C(=O)NS(=O)(=O)Cc3ccccc3/C=C/C(=O)NCCNC(=O)CCc3ccc4n3[B-](F)(F)[N+]3=C(c5ccc[nH]5)C=CC3=C4)CC2)nc1C [AZD1283-1-NB590]
NanoBRET Fold Response (TSHR; TSHR, 0.1μM): 1.00
NanoBRET Fold Response (TSHR; TSHR, 1μM): 0.96
NanoBRET Fold Response (CHRM5; CHRM5, 0.1μM): 1.08
NanoBRET Fold Response (CHRM5; CHRM5, 1μM): 1.08

COc1ccc2[nH]c(-c3ccc(CNC(=O)CCOCCOCCOCCOCCNC(=O)CCc4ccc5n4[B-](F)(F)[N+]4=C(c6ccc[nH]6)C=CC4=C5)cc3)c(CCNC(C)=O)c2n1 [AzomelatoninICO9-2-NB590]
NanoBRET Fold Response (TSHR; 0.1μM tracer): 1.03
NanoBRET Fold Response (TSHR; 1μM tracer): 0.95
NanoBRET Fold Response (CHRM5; 0.1μM tracer): 0.90
NanoBRET Fold Response (CHRM5; 1μM tracer): 0.97

CCCn1c(=O)c2[nH]c(-c3ccc(OCC(=O)NCCNC(=O)CCOCCNC(=O)c4ccc(CNC(=O)CCc5ccc6n5[B-](F)(F)[N+]5=C(c7ccc[nH]7)C=CC5=C6)cc4)cc3)nc2n(CCC)c1=O [XAC-3-NB590]
NanoBRET Fold Response (TSHR; TSHR, tracer 0.1μM): 1.08
NanoBRET Fold Response (TSHR; TSHR, tracer 1μM): 1.03
NanoBRET Fold Response (CHRM5; CHRM5, tracer 0.1μM): 0.98
NanoBRET Fold Response (CHRM5; CHRM5, tracer 1μM): 0.86

COc1ccccc1N1CCN(CCCCN2C(=O)c3ccc(CNC(=O)CCOCCNC(=O)c4ccc(CNC(=O)CCc5ccc6n5[B-](F)(F)[N+]5=C(c7ccc[nH]7)C=CC5=C6)cc4)cc3C2=O)CC1 [NAN-190-3-NB590]
NanoBRET Fold Response (TSHR; TSHR, tracer 0.1μM): 1.01
NanoBRET Fold Response (TSHR; TSHR, tracer 1μM): 1.04
NanoBRET Fold Response (CHRM5; CHRM5, tracer 0.1μM): 1.00
NanoBRET Fold Response (CHRM5; CHRM5, tracer 1μM): 1.24

CN(CCC=C1c2ccccc2CCc2ccccc21)C(=O)CCOCCOCCOCCOCCNC(=O)CCc1ccc2n1[B-](F)(F)[N+]1=C(c3ccc[nH]3)C=CC1=C2 [Amitriptyline-e-2-NB590]
NanoBRET Fold Response (CHRM5; tracer at 1μM): 1.14

O=C(CCc1ccc2n1[B-](F)(F)[N+]1=C(c3ccc[nH]3)C=CC1=C2)NCc1ccc(C(=O)NCCOCCOCCNCC(O)COc2cccc3ccccc23)cc1 (stereo not shown) [Propranolol-3-NB590]
NanoBRET Fold Response (CHRM5; CHRM5, 0.1μM): 1.00
NanoBRET Fold Response (CHRM5; CHRM5, 1μM): 1.03

COc1ccc2c(n1)c(CCNC(C)=O)cn2CCNC(=O)CCc1ccc2n1[B-](F)(F)[N+]1=C(c3ccc[nH]3)C=CC1=C2 [Azamelatonin-1-NB590]
NanoBRET Fold Response (TSHR; 0.1μM tracer): 1.25
NanoBRET Fold Response (TSHR; 1μM tracer): 0.91
NanoBRET Fold Response (CHRM5; 0.1μM tracer): 0.89
NanoBRET Fold Response (CHRM5; 1μM tracer): 1.23

O=C(CCOCCOCCOCCOCCNC(=O)CCc1ccc2n1[B-](F)(F)[N+]1=C(c3ccc[nH]3)C=CC1=C2)NCCCN1CCN(C2=Nc3ccccc3Oc3ccc(Cl)cc32)CC1 [Loxapine-a-2-NB590]
NanoBRET Fold Response (TSHR; TSHR, tracer 0.1μM): 0.97
NanoBRET Fold Response (TSHR; TSHR, tracer 1μM): 1.07
NanoBRET Fold Response (CHRM5; CHRM5, tracer 0.1μM): 0.99
NanoBRET Fold Response (CHRM5; CHRM5, tracer 1μM): 0.89

COc1ccccc1N1CCN(CCCCN2C(=O)c3ccc(CNC(=O)CCOCCOCCOCCOCCNC(=O)CCc4ccc5n4[B-](F)(F)[N+]4=C(c6ccc[nH]6)C=CC4=C5)cc3C2=O)CC1 [NAN-190-2-NB590]
NanoBRET Fold Response (TSHR; TSHR, tracer 0.1μM): 0.96
NanoBRET Fold Response (TSHR; TSHR, tracer 1μM): 1.06
NanoBRET Fold Response (CHRM5; CHRM5, tracer 0.1μM): 0.90

CC(C)N(CC[C@H](c1ccccc1)c1cc(CCNC(=O)c2ccc(CNC(=O)CCc3ccc4n3[B-](F)(F)[N+]3=C(c5ccc[nH]5)C=CC3=C4)cc2)ccc1O)C(C)C [Tolterodine-BZ-NB590]
NanoBRET Fold Response (TSHR; TSHR, tracer 0.1μM): 0.96
NanoBRET Fold Response (TSHR; TSHR, tracer 1μM): 1.08
NanoBRET Fold Response (CHRM5; CHRM5, tracer 0.1μM): 2.88
NanoBRET Fold Response (CHRM5; CHRM5, tracer 1μM): 1.94

O=C(CCc1ccc2n1[B-](F)(F)[N+]1=C(c3ccc[nH]3)C=CC1=C2)NCCOCCOCCNC(=O)OCCOCCN1CCN(C2=Nc3ccccc3Sc3ccccc32)CC1 [Quetiapine-a-2-NB590]
NanoBRET Fold Response (TSHR; TSHR, tracer 0.1μM): 0.96
NanoBRET Fold Response (TSHR; TSHR, tracer 1μM): 0.92
NanoBRET Fold Response (CHRM5; CHRM5, tracer 0.1μM): 1.18
NanoBRET Fold Response (CHRM5; CHRM5, tracer 1μM): 1.36

CN1CCN(C2=Nc3cc(Cl)ccc3Nc3ccc(CNC(=O)CCOCCOCCOCCOCCNC(=O)CCc4ccc5n4[B-](F)(F)[N+]4=C(c6ccc[nH]6)C=CC4=C5)cc32)CC1 [Clozapine-b-2-NB590]
NanoBRET Fold Response (TSHR; TSHR, 0.1μM tracer): 1.04
NanoBRET Fold Response (TSHR; TSHR, 1μM tracer): 0.99
NanoBRET Fold Response (CHRM5; CHRM5, 0.1μM tracer): 1.00

CN(C)CCC=C1c2ccccc2CCc2ccc(C(=O)NCCNC(=O)CCOCCOCCOCCOCCNC(=O)CCc3ccc4n3[B-](F)(F)[N+]3=C(c5ccc[nH]5)C=CC3=C4)cc21 [Amitriptyline-a-2-NB590]
NanoBRET Fold Response (CHRM5; tracer at 1μM): 1.23

Cc1cc2c(s1)Nc1ccccc1N=C2N1CCN(CCCNC(=O)CCOCCOCCOCCOCCNC(=O)CCc2ccc3n2[B-](F)(F)[N+]2=C(c4ccc[nH]4)C=CC2=C3)CC1 [Olanzapine-a-2-NB590]
NanoBRET Fold Response (CHRM5; CHRM5, tracer 0.1μM): 1.05
NanoBRET Fold Response (CHRM5; CHRM5, tracer 1μM): 1.00

CN(C)CCC=C1c2ccccc2CCc2ccc(C(=O)NCCNC(=O)CCOCCOCCOCCOCCNC(=O)CCc3ccc4n3[B-](F)(F)[N+]3=C(c5ccc[nH]5)C=CC3=C4)cc21 [Amitriptyline-b-2-NB590]
NanoBRET Fold Response (CHRM5; tracer at 0.1μM, listed as amitriptyline-b-2-NB590): 3.47
NanoBRET Fold Response (CHRM5; tracer at 1μM, listed as amitriptyline-b-2-NB590): 4.23
